In patent US5457030A, “Method and composition for determining antimicrobial susceptibility of the majority clinically significant Gram postitive organism” (MicroScan, Inc., priority 1993, dated 1995):
Values after ≈ are worked out from the molar mass of the structure shown. Where two headings read alike, the source gives them in different places.

How the values were obtained:
[1] = system: Enterococcus faecalis; assay: Minimum inhibitory concentration determination, Example 1 (Table 7); assay type: cell-based
Experimental: (§1) A primary inoculum suspension of a bacterial isolate in saline-pluronic, equivalent to a 0.5 McFarland turbidity standard is prepared. The final inoculum suspension is prepared by diluting a 0.3 ml aliquot of the primary suspension in 25 ml of Rapid Pos Inoculum Broth (B1015-14, Baxter Diagnostics Inc., MicroScan Division, West Sacramento, Calif.). A 115 μl of the final inoculum is added to the growth compartment which contains dried material of fluorogenic enzyme substrates equivalent to 0.023 mM leucine-7-amido-4-methylcoumarin, 0.012 mM phenylalanine-7-amido-4-methylcoumarin and 0.058 mM methylumbelliferyl phosphate and 1.15 mM HEPES buffer at pH 7.0. The final inoculum is also added to a number of compartments containing dried material identical to that in the growth well and different concentrations of an antimicrobial agent. An aliquot of the final inoculum is also added to a compartment, containing only dried HEPES buffer, acting as a control. The inoculated multicompartment device (panel) is inserted in the autoSCAN®-W/A. The fluorescence of each compartment is measured at predetermined times and a Growth Index is calculated by dividing the fluorescence of the growth compartment by that of the negative control compartment.
(§2) If the value of the Growth Index is equal to or exceeds a specified value, the Minimum Inhibitory Concentration for every antimicrobial agent present in the multicompartment device is calculated. Otherwise the device is returned to its position and measured again at the next read time. The read times in this example are 3.5, 4.5, 5.5, 7.0, 8.0, 11.0, and 15.0 hours. For calculation of minimum inhibitory concentration, the percent fluorescence of compartments containing the different concentrations of the antimicrobial agent is calculated by subtracting from each compartment the fluorescence of the control well and dividing it by the delta fluorescence of the growth compartment, obtained by subtracting the fluorescence of the negative control compartment from the fluorescence of the growth compartment. The minimum inhibitory concentration is calculated using a mathematical model specific for each concentration range of the antimicrobial agent. Using a mathematical model based on discriminate functional analysis, the minimum inhibitory concentration of each antimicrobial agent, for the organism tested, can be determined. Utilization of a discriminate function analysis model in microbiological pattern recognition is described in S. Bascomb, Computers in Taxonomy and Systematics, p. 65-102 In T. N. Bryant and J. W. T. Wimpenny (Ed.), Computers in Microbiology, a Practical Approach (IRL Press, Oxford). In an alternative embodiment the minimum inhibitory concentration for each antimicrobial agent for the organism tested can be determined by a breakpoint or threshold method or linear regression analysis. J. McKie, et al., Antimicrobial Agents and Chemotherapy (1980) v. 17, 813-823.
(§3) In Example 1, the growth of Enterococcus faecalis in wells containing specified amounts of antimicrobial agents is estimated by measurement of fluorescence. In Table 6, the percent fluorescence at different concentrations of antimicrobial agents is reported. For example, 0.12, 0.25, 0.5, 1, 2, 4 and 8 μg/mL of ampicillin (Am) were present in the microdilution wells.
In Table 7, the minimum inhibitory concentration for Example 1 are reported.

[2] = system: Enterococcus faecalis; assay: Percent fluorescence (growth) in wells containing antimicrobial agents, Example 1 (Table 6); assay type: cell-based
Experimental: as §1
^FL growth - ^FL control
as §2, §3
The numbers 105, 105, 67, 7, 6, 5, 6 are percent fluorescence values as calculated in […]. These figures are used to determine susceptibility according to the methods discussed on pages 12 and 13.

[3] = Enterococcus faecalis, read-out: concentration at which organism was found to be susceptible
[4] = Enterococcus faecalis, read-out: minimum inhibitory concentration
[5] = Enterococcus faecalis, read-out: percent fluorescence
[6] = Enterococcus faecalis, Table 7, Example 1, read-out: concentration at which organism was found to be susceptible
[7] = Table 7, Enterococcus faecalis, Example 1, read-out: minimum inhibitory concentration
[8] = Enterococcus faecalis, 4 μg/mL, read-out: percent fluorescence
[9] = Enterococcus faecalis, 8 μg/mL, read-out: percent fluorescence

Molecule: CC[C@H]1OC(=O)[C@H](C)[C@@H](O[C@H]2C[C@@](C)(OC)[C@@H](O)[C@H](C)O2)[C@H](C)[C@@H](O[C@@H]2O[C@H](C)C[C@H](N(C)C)[C@H]2O)[C@](C)(O)C[C@@H](C)C(=O)[C@H](C)[C@@H](O)[C@]1(C)O [Erythromycin]
- MIC [1, 3]: 4 µg/mL (≈ 5.45 µM)
- MIC [1, 4]: 4 µg/mL (≈ 5.45 µM)
- activity at 0.25 µg/mL [2, 5]: 59%
- activity at 0.5 µg/mL [2, 5]: 9%
- activity at 1 µg/mL [2, 5]: 5%
- activity at 2 µg/mL [2, 5]: 5%
- activity at 4 µg/mL [2, 5]: 4%

Molecule: C[C@@H](O)[C@H]1C(=O)N2C(C(=O)O)=C(SCCN=CN)C[C@H]12 [Imipenem]
- MIC [1, 6]: 4 µg/mL (≈ 13.4 µM)
- MIC [1, 7]: 4 µg/mL (≈ 13.4 µM)
- activity at 1 µg/mL ([2]; Enterococcus faecalis, 1 μg/mL, read-out: percent fluorescence): 65%
- activity at 2 µg/mL ([2]; Enterococcus faecalis, 2 μg/mL, read-out: percent fluorescence): 5%
- activity at 4 µg/mL [2, 8]: 5%
- activity at 8 µg/mL [2, 9]: 5%

Molecule: O=C1CN(/N=C/c2ccc([N+](=O)[O-])o2)C(=O)N1 [Nitrofurantoin]
- MIC [1, 6]: < 32 µg/mL
- MIC [1, 7]: < 32 µg/mL
- activity at 32 µg/mL ([2]; Enterococcus faecalis, 32 μg/mL): 86%
- activity at 46 µg/mL ([2]; Enterococcus faecalis, 46 μg/mL (printed 46Fd)): 21%

Molecule: CCn1cc(C(=O)O)c(=O)c2cc(F)c(N3CCNCC3)cc21 [Norfloxacin]
- MIC [1, 6]: < 4 µg/mL
- MIC [1, 7]: < 4 µg/mL
- activity at 4 µg/mL [2, 8]: 6%
- activity at 8 µg/mL [2, 9]: 6%

Molecule: Cc1onc(-c2ccccc2)c1C(=O)N[C@@H]1C(=O)N2[C@@H]1SC(C)(C)[C@@H]2C(=O)O [Oxacillin]
- activity at 0.25 µg/mL [2, 5]: 103%
- activity at 0.5 µg/mL [2, 5]: 98%
- activity at 1 µg/mL [2, 5]: 100%
- activity at 2 µg/mL [2, 5]: 99%
- activity at 4 µg/mL [2, 5]: 95%
- activity at 8 µg/mL [2, 5]: 90%

Molecule: CC1(C)S[C@@H]2[C@H](NC(=O)Cc3ccccc3)C(=O)N2[C@H]1C(=O)O [Penicillin]
- activity at 0.03 µg/mL [2, 5]: 99%
- activity at 0.06 µg/mL [2, 5]: 104%
- activity at 0.12 µg/mL [2, 5]: 105%
- activity at 0.5 µg/mL [2, 5]: 105%
- activity at 1 µg/mL [2, 5]: 93%
- activity at 2 µg/mL [2, 5]: 12%
- activity at 4 µg/mL [2, 5]: 7%
- activity at 8 µg/mL [2, 5]: 7%
- activity at 25 µg/mL [2, 5]: 105%

Molecule: CO[C@H]1/C=C/O[C@@]2(C)Oc3c(C)c(O)c4c(O)c(c(/C=N/N5CCN(C)CC5)c(O)c4c3C2=O)NC(=O)/C(C)=C\C=C\[C@H](C)[C@H](O)[C@@H](C)[C@@H](O)[C@@H](C)[C@H](OC(C)=O)[C@@H]1C [Rifampin]
- MIC [1, 3]: 2 µg/mL (≈ 2.43 µM)
- MIC [1, 4]: 2 µg/mL (≈ 2.43 µM)
- activity at 1 µg/mL [2, 5]: 58%
- activity at 2 µg/mL [2, 5]: 21%

Molecule: CN[C@@H]1[C@H](O[C@H]2[C@H](O[C@H]3[C@H](O)[C@@H](O)[C@H](N=C(N)N)[C@@H](O)[C@@H]3N=C(N)N)O[C@@H](C)[C@]2(O)C=O)O[C@@H](CO)[C@H](O)[C@H]1O [Streptomycin Synergy Screen]
- Streptomycin Synergy Screen result in Table 7 ([1]; Table 7, Enterococcus faecalis, Example 1): 5
- susceptibility to synergy screen ([1]; Table 7, Example 1): susceptible
- percent fluorescence ([2]; synergy screen well): 5%

Molecule: CN(C)C1C(=O)C(C(N)=O)=C(O)C2(O)C(=O)C3=C(O)c4c(O)cccc4C(C)(O)C3CC12 (centres unmarked) [Tetracycline]
- MIC [1, 3]: 128 µg/mL (≈ 288 µM)
- MIC [1, 4]: 128 µg/mL (≈ 288 µM)
- activity at 0.5 µg/mL [2, 5]: 91%
- activity at 1 µg/mL [2, 5]: 85%
- activity at 2 µg/mL [2, 5]: 79%
- activity at 4 µg/mL [2, 5]: 71%
- activity at 8 µg/mL [2, 5]: 62%
- activity at 128 µg/mL [2, 5]: 37%

Molecule: CN[C@H](CC(C)C)C(=O)N[C@H]1C(=O)N[C@@H](CC(N)=O)C(=O)N[C@H]2C(=O)N[C@H]3C(=O)N[C@H](C(=O)N[C@H](C(=O)O)c4cc(O)cc(O)c4-c4cc3ccc4O)[C@H](O)c3ccc(c(Cl)c3)Oc3cc2cc(c3O[C@@H]2O[C@H](CO)[C@@H](O)[C@H](O)[C@H]2O[C@H]2C[C@](C)(N)[C@H](O)[C@H](C)O2)Oc2ccc(cc2Cl)[C@H]1O [Vancomycin]
- MIC [1, 3]: < 2 µg/mL
- MIC [1, 4]: < 2 µg/mL
- activity at 2 µg/mL [2, 5]: 5%
- activity at 4 µg/mL [2, 5]: 5%
- activity at 8 µg/mL [2, 5]: 5%
- activity at 16 µg/mL [2, 5]: 2%

Molecule: Gentamicin
- percent fluorescence ([2]; 1 μg/mL): 105%
- percent fluorescence ([2]; 2 μg/mL): 99%
- percent fluorescence ([2]; 4 μg/mL): 95%
- percent fluorescence ([2]; 6 μg/mL): 93%
- percent fluorescence ([2]; 8 μg/mL): 93%
